Test results from ChEMBL document CHEMBL4270481, “ALK5 kinase inhibitory activity and synthesis of 2,3,4-substituted 5,5-dimethyl-5,6-dihydro-4H-pyrrolo[1,2-b]pyrazoles” (Eur J Med Chem, 2017).

Experiments:
[1] = target: Tyrosine-protein kinase ABL1 (Mus musculus, UniProt P00520); assay: biochemical; format: cell-based, Sf9
MCF7 = assay: Cytotoxicity against human MCF7 cells assessed as decrease in cell proliferation after 72 hrs by calcein AM staining-based assay; format: functional; details: MCF7, 72 h
HeLa = assay: Cytotoxicity against human HeLa cells assessed as decrease in cell proliferation up to 100 uM after 72 hrs by calcein AM staining-based assay
[2] = target: T1, TGF-beta receptor type-1 (Homo sapiens) (UniProt P36897); assay: Inhibition of ALK5 in serum starved human HeLa cells assessed as reduction in TGF-beta-induced SMAD2 S465/467 phosphorylation pre-incubated for 30 mins before TGF-beta stimulation for 30 mins by immunoblotting analysis; format: cell-based
T1 sequence (whole entry): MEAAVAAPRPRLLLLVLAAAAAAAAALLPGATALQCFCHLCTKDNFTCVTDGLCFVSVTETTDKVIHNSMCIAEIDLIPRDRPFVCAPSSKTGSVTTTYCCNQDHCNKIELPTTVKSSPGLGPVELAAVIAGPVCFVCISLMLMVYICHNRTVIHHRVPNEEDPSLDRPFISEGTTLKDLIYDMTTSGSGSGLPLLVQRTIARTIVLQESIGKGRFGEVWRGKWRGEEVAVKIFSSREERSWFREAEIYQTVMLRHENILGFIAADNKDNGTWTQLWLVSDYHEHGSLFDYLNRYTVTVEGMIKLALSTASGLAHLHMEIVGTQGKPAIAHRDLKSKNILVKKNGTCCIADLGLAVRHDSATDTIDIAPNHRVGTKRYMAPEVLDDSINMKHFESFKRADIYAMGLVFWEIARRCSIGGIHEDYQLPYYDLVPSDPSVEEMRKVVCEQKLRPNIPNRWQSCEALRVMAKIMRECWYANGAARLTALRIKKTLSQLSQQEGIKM

[3] = target: Mitogen-activated protein kinase 14 (Homo sapiens) (UniProt Q16539); assay: Inhibition of p38alpha (unknown origin) assessed as residual enzyme activity at 1 uM relative to untreated control
[4] = target: Mitogen-activated protein kinase kinase kinase 11 (Homo sapiens) (UniProt Q16584); assay: Inhibition of MLK3 (unknown origin) assessed as residual enzyme activity at 1 uM relative to untreated control
[5] = target: Casein kinase 2 (Homo sapiens) (UniProt P67870+P68400+P19784+Q8NEV1); assay: Inhibition of CK2 (unknown origin) assessed as residual enzyme activity at 1 uM relative to untreated control; format: protein assay
[6] = target: Glycogen synthase kinase-3 beta (Homo sapiens) (UniProt P49841); assay: Inhibition of GSK3beta (unknown origin) assessed as residual enzyme activity at 1 uM relative to untreated control
Glycogen synthase kinase-3 beta (Homo sapiens), sequence (P49841 whole entry, looked up): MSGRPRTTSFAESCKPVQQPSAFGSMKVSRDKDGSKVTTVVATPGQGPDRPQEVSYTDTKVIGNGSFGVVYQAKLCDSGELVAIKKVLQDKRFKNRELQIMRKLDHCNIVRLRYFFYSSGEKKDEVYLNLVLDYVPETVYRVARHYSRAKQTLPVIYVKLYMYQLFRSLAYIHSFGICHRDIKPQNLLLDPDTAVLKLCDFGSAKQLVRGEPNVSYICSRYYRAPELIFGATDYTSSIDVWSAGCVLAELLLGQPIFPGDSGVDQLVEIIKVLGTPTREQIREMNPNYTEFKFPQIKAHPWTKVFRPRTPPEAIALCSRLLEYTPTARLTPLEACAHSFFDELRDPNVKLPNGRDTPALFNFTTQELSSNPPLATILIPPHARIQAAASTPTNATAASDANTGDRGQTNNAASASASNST

[7] = target: Ribosomal protein S6 kinase alpha-1 (Homo sapiens) (UniProt Q15418); assay: Inhibition of RSK1 (unknown origin) assessed as residual enzyme activity at 1 uM relative to untreated control
[8] = target: Vascular endothelial growth factor receptor (Homo sapiens) (UniProt P17948+P35916+P35968); assay: Inhibition of VEGFR (unknown origin) assessed as residual enzyme activity at 1 uM relative to untreated control; format: protein assay
[9] = target: AMP-activated protein kinase, AMPK (Homo sapiens) (UniProt P54646+O43741+P54619+Q9UGJ0+Q9Y478+Q13131+Q9UGI9); assay: Inhibition of AMPK (unknown origin) assessed as residual enzyme activity at 1 uM relative to untreated control; format: protein-complex assay
[10] = target: Receptor tyrosine-protein kinase erbB-4 (Homo sapiens) (UniProt Q15303); assay: Inhibition of HER4 (unknown origin) assessed as residual enzyme activity at 1 uM relative to untreated control
Receptor tyrosine-protein kinase erbB-4 (Homo sapiens), sequence (Q15303 whole entry): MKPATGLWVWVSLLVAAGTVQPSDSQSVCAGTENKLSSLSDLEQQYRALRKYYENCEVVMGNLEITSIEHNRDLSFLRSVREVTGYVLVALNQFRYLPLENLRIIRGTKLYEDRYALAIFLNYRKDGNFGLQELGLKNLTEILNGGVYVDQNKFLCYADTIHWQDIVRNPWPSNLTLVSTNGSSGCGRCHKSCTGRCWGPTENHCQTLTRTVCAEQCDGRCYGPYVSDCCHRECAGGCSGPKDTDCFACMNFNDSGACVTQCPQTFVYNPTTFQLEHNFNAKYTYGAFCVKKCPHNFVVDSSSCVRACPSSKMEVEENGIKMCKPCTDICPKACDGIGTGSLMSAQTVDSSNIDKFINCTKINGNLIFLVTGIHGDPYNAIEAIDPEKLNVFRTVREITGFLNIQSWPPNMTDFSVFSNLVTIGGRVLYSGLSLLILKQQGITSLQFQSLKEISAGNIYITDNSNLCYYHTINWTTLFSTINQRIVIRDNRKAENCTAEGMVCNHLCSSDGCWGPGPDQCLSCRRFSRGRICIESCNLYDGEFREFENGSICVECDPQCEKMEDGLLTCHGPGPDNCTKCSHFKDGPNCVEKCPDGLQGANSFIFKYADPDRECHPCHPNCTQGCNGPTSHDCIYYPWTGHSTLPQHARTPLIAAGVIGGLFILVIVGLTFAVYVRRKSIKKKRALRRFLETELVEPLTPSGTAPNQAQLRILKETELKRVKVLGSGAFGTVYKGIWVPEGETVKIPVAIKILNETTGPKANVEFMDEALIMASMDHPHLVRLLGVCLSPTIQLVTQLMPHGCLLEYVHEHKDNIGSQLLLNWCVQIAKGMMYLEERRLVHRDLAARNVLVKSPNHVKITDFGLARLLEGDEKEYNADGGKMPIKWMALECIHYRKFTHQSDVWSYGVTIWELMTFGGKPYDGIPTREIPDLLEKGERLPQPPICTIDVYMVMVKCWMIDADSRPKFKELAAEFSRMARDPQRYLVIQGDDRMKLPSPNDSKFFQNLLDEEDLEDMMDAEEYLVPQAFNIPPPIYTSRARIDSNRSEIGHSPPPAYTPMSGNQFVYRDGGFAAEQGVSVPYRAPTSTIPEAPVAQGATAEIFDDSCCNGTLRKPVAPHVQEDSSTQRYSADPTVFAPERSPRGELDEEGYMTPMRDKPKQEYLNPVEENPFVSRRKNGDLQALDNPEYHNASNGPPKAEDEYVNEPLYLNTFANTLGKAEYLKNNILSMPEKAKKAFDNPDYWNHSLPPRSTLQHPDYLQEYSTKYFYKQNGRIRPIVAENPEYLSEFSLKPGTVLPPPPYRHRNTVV

[11] = target: Serine/threonine-protein kinase Chk2 (Homo sapiens) (UniProt O96017); assay: Inhibition of CHK2 (unknown origin) assessed as residual enzyme activity at 1 uM relative to untreated control
[12] = target: Insulin-like growth factor 1 receptor (Homo sapiens) (UniProt P08069); assay: Inhibition of IGF1R (unknown origin) assessed as residual enzyme activity at 1 uM relative to untreated control
[13] = target: Interleukin-1 receptor-associated kinase 4 (Homo sapiens) (UniProt Q9NWZ3); assay: Inhibition of IRAK4 (unknown origin) assessed as residual enzyme activity at 1 uM relative to untreated control
[14] = target: Tyrosine-protein kinase JAK2 (Homo sapiens) (UniProt O60674); assay: Inhibition of JAK2 (unknown origin) assessed as residual enzyme activity at 1 uM relative to untreated control
[15] = target: Tyrosine-protein kinase Lck (Homo sapiens) (UniProt P06239); assay: Inhibition of LCK (unknown origin) assessed as residual enzyme activity at 1 uM relative to untreated control
[16] = target: Serine/threonine-protein kinase STK11 (Homo sapiens) (UniProt Q15831); assay: Inhibition of LKB1 (unknown origin) assessed as residual enzyme activity at 1 uM relative to untreated control
Serine/threonine-protein kinase STK11 (Homo sapiens), sequence (Q15831 whole entry): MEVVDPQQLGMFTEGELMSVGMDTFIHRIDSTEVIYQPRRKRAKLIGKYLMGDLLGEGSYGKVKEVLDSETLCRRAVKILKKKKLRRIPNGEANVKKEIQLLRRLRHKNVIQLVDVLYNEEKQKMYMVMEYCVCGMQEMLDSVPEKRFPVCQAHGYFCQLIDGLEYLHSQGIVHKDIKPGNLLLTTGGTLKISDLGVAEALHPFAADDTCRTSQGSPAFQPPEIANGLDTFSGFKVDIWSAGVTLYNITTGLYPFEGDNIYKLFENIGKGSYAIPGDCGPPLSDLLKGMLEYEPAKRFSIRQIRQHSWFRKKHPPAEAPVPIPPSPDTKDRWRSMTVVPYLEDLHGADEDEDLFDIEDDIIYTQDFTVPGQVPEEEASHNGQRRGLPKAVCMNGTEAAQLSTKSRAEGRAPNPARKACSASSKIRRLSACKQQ

[17] = target: Dual specificity mitogen-activated protein kinase kinase 1 (Homo sapiens) (UniProt Q02750); assay: Inhibition of MKK1 (unknown origin) assessed as residual enzyme activity at 1 uM relative to untreated control
[18] = target: Serine/threonine-protein kinase 3 (Homo sapiens) (UniProt Q13188); assay: Inhibition of MST2 (unknown origin) assessed as residual enzyme activity at 1 uM relative to untreated control
[19] = target: 3-phosphoinositide-dependent protein kinase 1 (Homo sapiens) (UniProt O15530); assay: Inhibition of PDK1 (unknown origin) assessed as residual enzyme activity at 1 uM relative to untreated control
3-phosphoinositide-dependent protein kinase 1 (Homo sapiens), sequence (O15530 whole entry): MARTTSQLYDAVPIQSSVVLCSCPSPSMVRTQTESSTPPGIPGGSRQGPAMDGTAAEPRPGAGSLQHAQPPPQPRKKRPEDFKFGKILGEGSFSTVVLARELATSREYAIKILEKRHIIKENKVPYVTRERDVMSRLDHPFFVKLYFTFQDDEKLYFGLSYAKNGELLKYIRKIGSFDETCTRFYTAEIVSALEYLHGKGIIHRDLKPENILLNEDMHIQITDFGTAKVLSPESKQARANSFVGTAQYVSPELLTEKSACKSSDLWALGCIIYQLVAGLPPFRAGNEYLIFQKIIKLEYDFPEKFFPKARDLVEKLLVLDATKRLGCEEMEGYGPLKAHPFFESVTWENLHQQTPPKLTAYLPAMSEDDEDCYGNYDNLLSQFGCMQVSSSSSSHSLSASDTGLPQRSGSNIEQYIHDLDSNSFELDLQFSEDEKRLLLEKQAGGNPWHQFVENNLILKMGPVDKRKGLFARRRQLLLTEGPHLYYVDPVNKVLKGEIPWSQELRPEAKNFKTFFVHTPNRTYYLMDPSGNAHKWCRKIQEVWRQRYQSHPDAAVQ

[20] = target: Serine/threonine-protein kinase pim-1 (Homo sapiens) (UniProt P11309); assay: Inhibition of PIM1 (unknown origin) assessed as residual enzyme activity at 1 uM relative to untreated control
[21] = target: RAC-alpha serine/threonine-protein kinase (Homo sapiens) (UniProt P31749); assay: Inhibition of PKBalpha (unknown origin) assessed as residual enzyme activity at 1 uM relative to untreated control
[22] = target: Protein kinase C alpha type (Homo sapiens) (UniProt P17252); assay: Inhibition of PKCalpha (unknown origin) assessed as residual enzyme activity at 1 uM relative to untreated control
[23] = target: Ribosomal protein S6 kinase beta-1 (Homo sapiens) (UniProt P23443); assay: Inhibition of S6K1 (unknown origin) assessed as residual enzyme activity at 1 uM relative to untreated control
Ribosomal protein S6 kinase beta-1 (Homo sapiens), sequence (P23443 whole entry, looked up): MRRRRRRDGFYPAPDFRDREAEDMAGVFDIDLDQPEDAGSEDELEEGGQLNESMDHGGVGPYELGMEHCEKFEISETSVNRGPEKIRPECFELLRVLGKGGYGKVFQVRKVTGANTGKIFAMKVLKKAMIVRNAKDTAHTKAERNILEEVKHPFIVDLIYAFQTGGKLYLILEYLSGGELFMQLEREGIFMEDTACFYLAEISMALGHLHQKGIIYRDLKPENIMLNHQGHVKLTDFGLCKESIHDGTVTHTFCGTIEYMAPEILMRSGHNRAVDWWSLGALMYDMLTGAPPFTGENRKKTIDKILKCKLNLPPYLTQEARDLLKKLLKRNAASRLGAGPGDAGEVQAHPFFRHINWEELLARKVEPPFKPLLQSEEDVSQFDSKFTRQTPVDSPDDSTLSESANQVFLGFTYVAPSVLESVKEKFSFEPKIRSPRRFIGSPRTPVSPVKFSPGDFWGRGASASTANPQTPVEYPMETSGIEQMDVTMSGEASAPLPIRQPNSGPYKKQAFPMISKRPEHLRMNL

[24] = target: Myosin light chain kinase, smooth muscle (Homo sapiens) (UniProt Q15746); assay: Inhibition of SmMLCK (unknown origin) assessed as residual enzyme activity at 1 uM relative to untreated control
[25] = target: Proto-oncogene tyrosine-protein kinase Src (Homo sapiens) (UniProt P12931); assay: Inhibition of SRC (unknown origin) assessed as residual enzyme activity at 1 uM relative to untreated control
[26] = target: Mitogen-activated protein kinase kinase kinase 7 (Homo sapiens) (UniProt O43318); assay: Inhibition of TAK1 (unknown origin) assessed as residual enzyme activity at 1 uM relative to untreated control
[27] = target: Dual specificity protein kinase TTK (Homo sapiens) (UniProt P33981); assay: Inhibition of TTK (unknown origin) assessed as residual enzyme activity at 1 uM relative to untreated control

Tyrosine-protein kinase ABL1, sequence (P00520 whole entry): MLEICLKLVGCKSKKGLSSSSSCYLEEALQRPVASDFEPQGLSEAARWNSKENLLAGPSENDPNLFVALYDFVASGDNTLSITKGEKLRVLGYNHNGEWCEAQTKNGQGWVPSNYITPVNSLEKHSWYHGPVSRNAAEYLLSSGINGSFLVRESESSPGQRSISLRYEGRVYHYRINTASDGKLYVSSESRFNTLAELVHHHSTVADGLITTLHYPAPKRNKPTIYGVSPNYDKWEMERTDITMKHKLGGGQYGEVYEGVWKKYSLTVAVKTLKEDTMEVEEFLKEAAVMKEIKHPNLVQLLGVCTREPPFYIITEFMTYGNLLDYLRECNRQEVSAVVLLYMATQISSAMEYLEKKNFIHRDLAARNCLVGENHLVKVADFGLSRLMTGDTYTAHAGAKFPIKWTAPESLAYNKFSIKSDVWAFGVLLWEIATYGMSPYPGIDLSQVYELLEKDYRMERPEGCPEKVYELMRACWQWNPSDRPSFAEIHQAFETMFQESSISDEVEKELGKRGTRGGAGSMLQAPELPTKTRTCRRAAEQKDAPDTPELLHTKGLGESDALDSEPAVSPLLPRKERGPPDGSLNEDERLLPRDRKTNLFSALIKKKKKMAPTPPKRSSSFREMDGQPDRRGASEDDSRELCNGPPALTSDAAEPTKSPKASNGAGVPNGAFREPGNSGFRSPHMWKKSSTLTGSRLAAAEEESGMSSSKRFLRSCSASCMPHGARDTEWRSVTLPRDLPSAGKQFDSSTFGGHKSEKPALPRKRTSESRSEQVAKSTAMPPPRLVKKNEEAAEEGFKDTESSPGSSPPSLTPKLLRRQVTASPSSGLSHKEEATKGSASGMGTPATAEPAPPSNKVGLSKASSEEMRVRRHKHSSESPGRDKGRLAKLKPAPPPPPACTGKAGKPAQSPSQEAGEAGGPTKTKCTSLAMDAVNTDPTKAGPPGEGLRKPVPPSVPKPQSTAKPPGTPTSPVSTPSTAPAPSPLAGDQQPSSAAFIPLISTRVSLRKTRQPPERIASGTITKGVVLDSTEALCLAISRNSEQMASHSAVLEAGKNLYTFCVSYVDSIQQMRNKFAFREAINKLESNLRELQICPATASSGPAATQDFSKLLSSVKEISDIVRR

Cc1cccc(-c2nn3c(c2-c2ccc(O)cc2)C(C)C(C)(C)C3)n1 (centres undefined)
> 80%: Activity [9] | Activity [10] | Activity [11] | Activity [12] | Activity [13] | Activity [14] | Activity [15] | Activity [16] | Activity [17] | Activity [18] | Activity [19] | Activity [20] | Activity [21] | Activity [22] | Activity [23] | Activity [24] | Activity [25] | Activity [26] | Activity [27]
> 100 µM: IC50 (MCF7)
66 µM: IC50 [1]
9%: Activity [3]
active: inhibition [2] Dose-dependent effect
Non-Toxic: Activity (HeLa)
34%: Activity [4]
60 to 80%: Activity [5] | Activity [6] | Activity [7] | Activity [8]
